Consider 24 molecules from patent US10058550B2, “Methods of treating heart failure” (priority 2015, dated 2018).

The target in the experiment is human APJ receptor (Homo sapiens (Human), UniProt P35414). Put plainly: biochemical. The note with it: read-out: Activity hAPJ SPA EC50 IP. The format is biochemical. Put shortly: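 Membranes from CHO cells stably expressing cloned human APJ were incubated with WGA SPA beads in 20 mM HEPES pH 7.5, 5 mM MgCl2, 0.1% BSA, 200 mM NaCl and 3 μM GDP. Reaction started with 0.2 nM [35S]GTPγS ± ligands, 90 min at RT. EC50 obtained by non-linear regression as mean of independent experiments.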
Sequence of human APJ receptor (P35414 whole entry): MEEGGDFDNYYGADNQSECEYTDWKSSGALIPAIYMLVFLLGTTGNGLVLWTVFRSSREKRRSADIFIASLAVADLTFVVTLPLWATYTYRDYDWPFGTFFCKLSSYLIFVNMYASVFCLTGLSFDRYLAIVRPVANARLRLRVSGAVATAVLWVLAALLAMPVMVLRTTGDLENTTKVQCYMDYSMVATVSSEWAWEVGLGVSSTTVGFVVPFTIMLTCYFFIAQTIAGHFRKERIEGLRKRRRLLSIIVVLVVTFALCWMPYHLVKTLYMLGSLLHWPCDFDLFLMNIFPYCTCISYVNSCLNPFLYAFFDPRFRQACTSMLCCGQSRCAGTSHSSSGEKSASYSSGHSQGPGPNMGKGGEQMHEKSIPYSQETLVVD

Regarding `COc1cccc(OC)c1-n1c(NS(=O)(=O)CCc2ccc(F)cc2C#N)nnc1-c1cncc(C)c1` [Example 621.0, 2-(2-cyano-4-fluorophenyl)-N-(4-(2,6-dimethoxyphenyl)-5-(5-methyl-3-pyridinyl)-4H-1,2,4-triazol-3-yl)ethanesulfonamide], the EC50 is 0.84 nM.

With `COc1ncnc(OC)c1-n1c(NS(=O)(=O)[C@@H](C)[C@H](OC)c2ncc(C)cn2)nnc1-c1ccccn1` [Example 628.0, (1R,2S)-N-(4-(4,6-dimethoxy-5-pyrimidinyl)-5-(2-pyridinyl)-4H-1,2,4-triazol-3-yl)-1-methoxy-1-(5-methyl-2-pyrimidinyl)-2-propanesulfonamide], the EC50 stood at 6.5 nM.

With `COc1cccc(OC)c1-n1c(NS(=O)(=O)[C@@H](C)[C@H](OC)c2ncc(C)cn2)nnc1-c1ccccn1` [Example 629.0, (1R,2S)-N-(4-(2,6-dimethoxyphenyl)-5-(2-pyridinyl)-4H-1,2,4-triazol-3-yl)-1-methoxy-1-(5-methyl-2-pyrimidinyl)-2-propanesulfonamide], the EC50 is 1.6 nM.

On to `COCCOc1cccc(-c2nnc(NS(=O)(=O)[C@@H](C)[C@H](C)c3ncc(F)cn3)n2-c2c(OC)cccc2OC)n1` [Example 638.0, (2S,3R)-N-(4-(2,6-dimethoxyphenyl)-5-(6-(2-methoxyethoxy)pyridin-2-yl)-4H-1,2,4-triazol-3-yl)-3-(5-fluoropyrimidin-2-yl)butane-2-sulfonamide], for which the EC50 stood at 0.65 nM.

Regarding `CNc1cccc(-c2nnc(NS(=O)(=O)[C@@H](C)[C@H](C)c3ncc(F)cn3)n2-c2c(OC)cccc2OC)n1` [Example 641.0, (2S,3R)-N-(4-(2,6-dimethoxyphenyl)-5-(6-(methylamino)pyridin-2-yl)-4H-1,2,4-triazol-3-yl)-3-(5-fluoropyrimidin-2-yl)butane-2-sulfonamide], the EC50 was determined as 0.14 nM.

In the case of `COc1cccc(OC(F)F)c1-n1c(NS(=O)(=O)[C@@H](C)[C@H](OC)c2ncc(C)cn2)nnc1-c1cccnc1` [Example 667.0, (1R,2S,P)-N-(4-(2-(difluoromethoxy)-6-methoxyphenyl)-5-(3-pyridinyl)-4H-1,2,4-triazol-3-yl)-1-methoxy-1-(5-methyl-2-pyrimidinyl)-2-propanesulfonamide and (1R,2S,M)-N-(4-(2-(difluoromethoxy)-6-methoxyphenyl)-5-(3-pyridinyl)-4H-1,2,4-triazol-3-yl)-1-methoxy-1-(5-methyl-2-pyrimidinyl)-2-propanesulfonamide], the EC50 worked out at 2.6 nM.

As to `COc1cccc(OC(F)F)c1-n1c(NS(=O)(=O)[C@@H](C)[C@H](OC)c2ncc(C)cn2)nnc1-c1cncc(C)c1` [Example 668.0, (1R,2S,P)-N-(4-(2-(difluoromethoxy)-6-methoxyphenyl)-5-(5-methyl-pyridinyl)-4H-1,2,4-triazol-3-yl)-1-methoxy-1-(5-methyl-2-pyrimidinyl)-2-propanesulfonamide and (1R,2S,M)-N-(4-(2-(difluoromethoxy)-6-methoxyphenyl)-5-(5-methyl-3-pyridinyl)-4H-1,2,4-triazol-3-yl)-1-methoxy-1-(5-methyl-2-pyrimidinyl)-2-propanesulfonamide], the EC50 was found to be 0.76 nM.

With `CO[C@H](c1ncc(C)cn1)[C@H](C)S(=O)(=O)Nc1nnc(-c2cccnc2)n1-c1c(OC(F)F)cccc1OC(F)F` [Example 669.0, (1R,2S)-N-(4-(2,6-bis(difluoromethoxy)phenyl)-5-(3-pyridinyl)-4H-1,2,4-triazol-3-yl)-1-methoxy-1-(5-methyl-2-pyrimidinyl)-2-propanesulfonamide], the EC50 stood at 2.7 nM.

As to `CO[C@H](c1ncc(C)cn1)[C@H](C)S(=O)(=O)Nc1nnc(-c2cncc(C)c2)n1-c1c(OC(F)F)cccc1OC(F)F` [Example 670.0, (1R,2S)-N-(4-(2,6-bis(difluoromethoxy)phenyl)-5-(5-methyl-3-pyridinyl)-4H-1,2,4-triazol-3-yl)-1-methoxy-1-(5-methyl-2-pyrimidinyl)-2-propanesulfonamide], the EC50 turned out to be 0.55 nM.

Regarding `CO[C@H](c1ncc(C)cn1)[C@H](C)S(=O)(=O)Nc1nnc(-c2cncc(C)c2)n1-c1c(Cl)cccc1Cl` [Example 675.0, (1R,2S)-N-(4-(2,6-dichlorophenyl)-5-(5-methyl-3-pyridinyl)-4H-1,2,4-triazol-3-yl)-1-methoxy-1-(5-methyl-2-pyrimidinyl)-2-propanesulfonamide 2,2,2-trifluoroacetate], the EC50 came out at 2.6 nM.

In the case of `COc1cccc(-c2nnc(NS(=O)(=O)CCc3ncc(F)cn3)n2-c2c(OC)cccc2OC)n1` [Example 676.0, N-(4-(2,6-dimethoxyphenyl)-5-(6-methoxy-2-pyridinyl)-4H-1,2,4-triazol-3-yl)-2-(5-fluoro-2-pyrimidinyl)ethanesulfonamide 2,2,2-trifluoroacetate], the EC50 stood at 6 nM.

For `CO[C@H](c1ncc(C)cn1)[C@H](C)S(=O)(=O)Nc1nnc(-c2cncc(C)c2)n1-c1c(F)cccc1F` [Example 677.0, (1R,2S)-N-(4-(2,6-difluorophenyl)-5-(5-methylpyridin-3-yl)-4H-1,2,4-triazol-3-yl)-1-methoxy-1-(5-methylpyrimidin-2-yl)propane-2-sulfonamide 2,2,2-trifluoroacetate], the EC50 worked out at 7.2 nM.

On to `COc1cnc([C@@H](C)[C@H](C)S(=O)(=O)Nc2nnc(-c3cncc(C)c3)n2-c2c(OC)cccc2OC)nc1` [Example 682.0, (2S,3R)-N-(4-(2,6-dimethoxyphenyl)-5-(5-methyl-3-pyridinyl)-4H-1,2,4-triazol-3-yl)-3-(5-methoxy-2-pyrimidinyl)-2-butanesulfonamide 2,2,2-trifluoroacetate], for which the EC50 came out at 0.2 nM.

For the molecule `COc1cccc(-c2nnc(NS(=O)(=O)[C@@H](C)[C@H](OC)c3ncc(C)cn3)n2-c2c(F)cccc2F)n1` [Example 684.0, (1R,2S)-N-(4-(2,6-difluorophenyl)-5-(6-methoxy-2-pyridinyl)-4H-1,2,4-triazol-3-yl)-1-methoxy-1-(5-methyl-2-pyrimidinyl)-2-propanesulfonamide], the EC50 amounted to 0.81 nM.

`COc1cnc([C@@H](OC)[C@@H](C)S(=O)(=O)Nc2nnc(-c3cncc(C)c3)n2-c2c(OC)cccc2OC)nc1` [Example 687.0, (1R,2R)-N-(4-(2,6-dimethoxyphenyl)-5-(5-methyl-3-pyridinyl)-4H-1,2,4-triazol-3-yl)-1-methoxy-1-(5-methoxy-2-pyrimidinyl)-2-propanesulfonamide 2,2,2-trifluoroacetate]: the EC50 turned out to be 4.7 nM.

Turning to `COc1ncnc(OC)c1-n1c(NS(=O)(=O)[C@@H](C)[C@H](C)c2ncc(Cl)cn2)nnc1-c1cccnc1` [Example 709.0, (2S,3R)-3-(5-chloro-2-pyrimidinyl)-N-(4-(4,6-dimethoxy-5-pyrimidinyl)-5-(3-pyridinyl)-4H-1,2,4-triazol-3-yl)-2-butanesulfonamide], the EC50 was found to be 0.71 nM.

Take `COc1cccc(-c2nnc(NS(=O)(=O)[C@@H](C)[C@H](C)c3ncc(Cl)cn3)n2-c2c(OC)ncnc2OC)n1` [Example 710.0, (2S,3R)-3-(5-chloro-2-pyrimidinyl)-N-(4-(4,6-dimethoxy-5-pyrimidinyl)-5-(6-methoxy-2-pyridinyl)-4H-1,2,4-triazol-3-yl)-2-butanesulfonamide]: the EC50 came out at 0.21 nM.

In the case of `COc1cccc(OC)c1-n1c(NS(=O)(=O)[C@@H](C)[C@@H](OC(C)C)c2ncc(C)cn2)nnc1-c1cccc(C)n1` [Example 738.0, (1S,2S)-N-(4-(2,6-dimethoxyphenyl)-5-(6-methylpyridin-2-yl)-4H-1,2,4-triazol-3-yl)-1-isopropoxy-1-(5-methylpyrimidin-2-yl)propane-2-sulfonamide], the EC50 was found to be 0.1 nM.

As to `COc1cccc(OC)c1-n1c(NS(=O)(=O)[C@@H](C)[C@H](OC)c2ncc(C3=CCOCC3)cn2)nnc1-c1cncc(C)c1` [Example 749.0, (1R,2S)-1-(5-(3,6-dihydro-2H-pyran-4-yl)pyrimidin-2-yl)-N-(4-(2,6-dimethoxyphenyl)-5-(5-methylpyridin-3-yl)-4H-1,2,4-triazol-3-yl)-1-methoxypropane-2-sulfonamide], the EC50 was 15 nM.

On to `COc1cccc(OC)c1-n1c(NS(=O)(=O)[C@@H](C)[C@H](OC)c2ncc(-c3cccnc3)cn2)nnc1-c1cncc(C)c1` [Example 752.0, (1R,2S)—N-(4-(2,6-dimethoxyphenyl)-5-(5-methylpyridin-3-yl)-4H-1,2,4-triazol-3-yl)-1-methoxy-1-(5-(pyridin-3-yl)pyrimidin-2-yl)propane-2-sulfonamide], for which the EC50 amounted to 3.6 nM.

Take `Cc1cnc([C@@H](C)[C@H](C)S(=O)(=O)Nc2nnc(-c3cncc(C)c3)n2-c2c(OC(F)F)cccc2OC(F)F)nc1` [Example 763.0, (2S,3R)—N-(4-(2,6-bis(difluoromethoxy)phenyl)-5-(5-methylpyridin-3-yl)-4H-1,2,4-triazol-3-yl)-3-(5-methylpyrimidin-2-yl)butane-2-sulfonamide]: the EC50 was 0.71 nM.

Regarding `COc1ncnc(OC)c1-n1c(NS(=O)(=O)[C@@H](C)[C@H](C)c2cnc(C)cn2)nnc1-c1ccccn1` [Example 773.0, (2S,3R)-N-(4-(4,6-dimethoxy-5-pyrimidinyl)-5-(2-pyridinyl)-4H-1,2,4-triazol-3-yl)-3-(5-methyl-2-pyrazinyl)-2-butanesulfonamide], the EC50 was determined as 14 nM.

As to `COc1cccc(OC)c1-n1c(NS(=O)(=O)[C@@H](C)[C@H](C)c2cnc(C)cn2)nnc1-c1ccccn1` [Example 774.0, (2S,3R)-N-(4-(2,6-dimethoxyphenyl)-5-(2-pyridinyl)-4H-1,2,4-triazol-3-yl)-3-(5-methyl-2-pyrazinyl)-2-butanesulfonamide], the EC50 worked out at 8.2 nM.

Regarding `COc1cccc(OC)c1-n1c(NS(=O)(=O)[C@@H](C)[C@H](C)c2ncc(C)cn2)nnc1-c1ccccn1` [Example 775.0, (2S,3R)-N-(4-(2,6-dimethoxyphenyl)-5-(2-pyridinyl)-4H-1,2,4-triazol-3-yl)-3-(5-methyl-2-pyrimidinyl)-2-butanesulfonamide], the EC50 is 2.1 nM.

As usually defined, the EC50 is the concentration that produces a half-maximal response.
